Laboratory results taken from publication PMC10859675, “Short‐chain mono‐carboxylates as negative modulators of allosteric transitions in Gloeobacter violaceus ligand‐gated ion channel, and impact of a pre‐β5 strand (Loop Ω) double mutation on crotonate, not butyrate effect” (Physiological Reports, 2024).
Several values for one entry are separate records, joined by “and”; a condition that tells them apart may be missing. Identical values can stand only once. Like-named read-outs stand apart in the source and are kept apart here.

Tests used:
WT GLIC [1] = biological target: T1, WT GLIC (Gloeobacter violaceus, UniProt Q7NDN8); test: Whole-cell patch-clamp, protocol with pre-stimulation at low pHo, WT GLIC expressed in tk-ts13 cells; type: cell-based; settings: for current in the presence of di-CBX, % of control: 10 mM at pHo 5.0, mean; for activity on GLIC current (NAM effect): 1 mM with pre-stimulation, pHo 5.0; for reversibility of negative modulation (slow components): after compound wash-out; for current in the presence of mono-CBX, % of control: 1 mM at pHo 5.0, WT sample of Figure 7, mean; for current in the presence of mono-CBX, % of control (100*I CBX/I CONTROL): 1 mM at pHo 5.0, WT sample of Figures 4 and 5, mean
T1 construct: expressed in transfected cells; host or cells: tk-ts13 cells, GLIC DNA in pMT3 vector
T1 sequence (Q7NDN8 44-359): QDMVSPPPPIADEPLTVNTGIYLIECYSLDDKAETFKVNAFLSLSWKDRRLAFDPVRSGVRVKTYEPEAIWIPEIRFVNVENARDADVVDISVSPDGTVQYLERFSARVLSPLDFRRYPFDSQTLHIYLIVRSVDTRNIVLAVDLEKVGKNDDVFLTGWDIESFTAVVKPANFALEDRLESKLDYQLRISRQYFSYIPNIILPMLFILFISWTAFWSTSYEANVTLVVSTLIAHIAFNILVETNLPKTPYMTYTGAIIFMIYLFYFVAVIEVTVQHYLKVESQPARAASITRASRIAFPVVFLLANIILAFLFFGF
Experimental: We give here the main points and some differences.
All solutions were prepared from the acid forms of the buffers/acido‐basic compounds (BAPTA, HEPES, MES, CBX, etc.). Stock 100 mmol/L (mM) mono‐CBX water solutions were prepared directly at pH 5 (NaOH/HCl), aliquoted and kept at −20°C.
Fit of concentration‐effect curves. For proton activation curves, the peak value (Ipk[pHo]; inward current value at maximal absolute value) within 30 s was considered (y), and a plot against H^+ activity value (x) was fitted with a 3‐parameter Hill equation: y=ymax*1/1+EC50nH/x^nH , giving I max, EC50, and pH50 = −log(EC50). For potentiation/inhibition, data for [percent of control current] in the presence of the compound (y = 100*I CBX/I CONTROL) to [compound concentration value] […] For most compounds are presented: a fit of the mean of data (Graphs), and the mean ± standard deviation (SD) of data from individual cells (values in text).

WT GLIC [2] = biological target: T1, WT GLIC; test: Whole-cell patch-clamp, direct protocol (pHo jump and compound applied simultaneously), WT GLIC in tk-ts13 cells; type: cell-based; settings: 1 mM at pHo 5.0, direct protocol, individual cells; for ratio of peak current values in the presence and in the absence of compound (Ipk[CBX@5.0]/Ipk[pHo 5.0]): first CBX application; for current decay (h) time constant: m^4 h fit
Source text: A direct protocol, where a pHo‐jump (from control pHo 7.5) and compound addition are applied simultaneously, was first used to examine the influence of saturated, short‐chain mono‐CBX compounds on low pHo‐induced GLIC current (Figure 1a).

GLIC E181A = biological target: T2, GLIC E181A (Gloeobacter violaceus, UniProt Q7NDN8, E223A); type: cell-based; settings: 1 mM at pHo 5.0, versus WT GLIC
T2 construct: expressed in transfected cells; host or cells: tk-ts13 cells, pMT3 vector
T2 sequence (Q7NDN8 44-359 E223A): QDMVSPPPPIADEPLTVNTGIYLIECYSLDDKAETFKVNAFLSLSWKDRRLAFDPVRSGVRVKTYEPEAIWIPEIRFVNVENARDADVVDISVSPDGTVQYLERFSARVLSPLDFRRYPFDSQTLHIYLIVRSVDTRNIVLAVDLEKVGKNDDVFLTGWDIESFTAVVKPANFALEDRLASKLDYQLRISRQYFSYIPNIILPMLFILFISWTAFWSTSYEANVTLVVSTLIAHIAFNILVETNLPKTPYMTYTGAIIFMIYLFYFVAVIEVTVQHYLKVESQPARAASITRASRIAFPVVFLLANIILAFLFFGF
Experimental: (§1) ACET (Figure 4) and the 4‐carbon compounds BUTYR and CROTON (Figure 5) were tested on the CBX‐pockets single mutants, at 1 mM with pre‐stimulation at pHo 5.0.

GLIC R133A [3] = biological target: T3, GLIC R133A (Gloeobacter violaceus, UniProt Q7NDN8, R175A); test: Whole-cell patch-clamp, direct protocol, GLIC R133A
T3 sequence (Q7NDN8 44-359 R175A): as the sequence (Q7NDN8 44-359 E223A) above, with R132A, A180E counted along it

GLIC AA‐N152A = GLIC AA‐N152A (Gloeobacter violaceus, UniProt Q7NDN8, D128A/D130A/N194A); test: Whole-cell patch-clamp with pre-stimulation, GLIC AA-N152A; settings: CROTON 1 mM at pHo 5.0, single exponential fit
Sequence of GLIC AA‐N152A (Q7NDN8 44-359 D128A/D130A/N194A): as the sequence (Q7NDN8 44-359 E223A) above, with D85A, D87A, N151A, A180E counted along it
Experimental: (§3) Nuclear injection of DNA was done on the day of reception of oocytes. […] Transfection was done within 24 h after cell seeding, using the DNA‐calcium phosphate co‐precipitation method. GFP‐positive cells were used for electrophysiology 1–2 days after transfection (tk‐ts13 cells), or 1–3 days after nuclear injection (oocytes). A mixture of DNAs coding for GLIC and GFP in separate pMT3 vectors was used, with amounts of [2 + 0.2] μg per 35 mm dish for transfections, or [0.04 + 0.02] g/L in water for injections.
(§4) The intracellular pipette solution was composed of (in mM): CsCl 150, MgCl2 1, HEPES 10, BAPTA 10, CsOH to pH 7.3. […] Lower pH values were reached by adding to this solution HCl 2 M in water (and more pH 7.5 solution to return pH up if necessary). […] A 3 M KCl, 5 g/L agar bridge was used to connect the reference electrode to the dish solution. […] Electric current flowing through the membrane from extracellular to intracellular face (inward current) is counted negative, and represented downwards in the figures. […]
(§5) Positive/negative modulation was evaluated as current in the presence of the compound, in percent of the control GLIC current value measured immediately before compound application (with a correction for GLIC current decay only for small inhibitions). […]

[4] = tested on: GLIC [AA + CBX‐pocket] triple mutants; test: Whole-cell patch-clamp with pre-stimulation, [AA + CBX-pocket] triple mutants; settings: 1 mM at pHo 5.0, compared to AA double mutant
Experimental: as §3, §4, §5

GLIC E104Q = biological target: T4, GLIC E104Q (Gloeobacter violaceus, UniProt Q7NDN8, E146Q); type: cell-based; settings: 1 mM at pHo 5.0, mean
T4 construct: expressed in transfected cells; host or cells: tk-ts13 cells, pMT3 vector
T4 sequence (Q7NDN8 44-359 E146Q): as the sequence (Q7NDN8 44-359 E223A) above, with E103Q, A180E counted along it
Experimental: as §1

GLIC E177A = biological target: T5, GLIC E177A (Gloeobacter violaceus, UniProt Q7NDN8, E219A); type: cell-based; settings: 1 mM at pHo 5.0, mean
T5 construct: expressed in transfected cells; host or cells: tk-ts13 cells, pMT3 vector
T5 sequence (Q7NDN8 44-359 E219A): as the sequence (Q7NDN8 44-359 E223A) above, with E176A, A180E counted along it
Experimental: as §1

GLIC R105A = biological target: T6, GLIC R105A (Gloeobacter violaceus, UniProt Q7NDN8, R147A); type: cell-based; settings: 1 mM at pHo 5.0, mean
T6 construct: expressed in transfected cells; host or cells: tk-ts13 cells, pMT3 vector
T6 sequence (Q7NDN8 44-359 R147A): as the sequence (Q7NDN8 44-359 E223A) above, with R104A, A180E counted along it
Experimental: as §1

GLIC R77A = biological target: T7, GLIC R77A (Gloeobacter violaceus, UniProt Q7NDN8, R119A); type: cell-based; settings: 1 mM at pHo 5.0, mean
T7 construct: expressed in transfected cells; host or cells: tk-ts13 cells, pMT3 vector
T7 sequence (Q7NDN8 44-359 R119A): as the sequence (Q7NDN8 44-359 E223A) above, with R76A, A180E counted along it
Experimental: as §1

GLIC Y102A = biological target: T8, GLIC Y102A (Gloeobacter violaceus, UniProt Q7NDN8, Y144A); type: cell-based; settings: 1 mM at pHo 5.0, mean
T8 construct: expressed in transfected cells; host or cells: tk-ts13 cells, pMT3 vector
T8 sequence (Q7NDN8 44-359 Y144A): as the sequence (Q7NDN8 44-359 E223A) above, with Y101A, A180E counted along it
Experimental: as §1

GLIC D86A‐D88A = biological target: T9, GLIC D86A‐D88A (Gloeobacter violaceus, UniProt Q7NDN8, D128A/D130A); type: cell-based; settings: 1 mM at pHo 5.0, Figure 7 sample, mean
T9 construct: expressed in transfected cells; host or cells: tk-ts13 cells, pMT3 vector
T9 sequence (Q7NDN8 44-359 D128A/D130A): as the sequence (Q7NDN8 44-359 E223A) above, with D85A, D87A, A180E counted along it
Source text: (§2) Compound modulation of the D86A‐D88A pre‐β5 variant (AA), N152A mutant and WT GLIC, was investigated in the protocol with pre‐stimulation at pHo 5.0 (Figure 7).

GLIC N152A = biological target: T10, GLIC N152A (Gloeobacter violaceus, UniProt Q7NDN8, N194A); type: cell-based; settings: 1 mM at pHo 5.0, mean
T10 construct: expressed in transfected cells; host or cells: tk-ts13 cells, pMT3 vector
T10 sequence (Q7NDN8 44-359 N194A): as the sequence (Q7NDN8 44-359 E223A) above, with N151A, A180E counted along it
Source text: as §2

GLIC R133A [5] = biological target: T3, GLIC R133A; type: cell-based; parameters: expressed in transfected cells; host or cells: tk-ts13 cells, pMT3 vector; settings: 1 mM at pHo 5.0, mean
Experimental: as §1

[6] = SUCCIN 10 mM at pHo 5.0, without ACET, after ACET 1 mM 50 s, one cell
[7] = pHo 5.5, mean ± SD, read-out: IC50 (from individual cells)
[8] = 5 or 10 mM, pre-stimulation at pHo 5.0, 2–5 cells each
[9] = pHo 5.0, mean ± SD, read-out: IC50 (from individual cells)

## O=C(O)CCC(=O)O [SUCCIN, Butanedioic acid]
WT GLIC [1]
  current in the presence of di-CBX, % of control: 142 % of control
WT GLIC [1]; [6]
  GLIC current with SUCCIN after ACET plateau, % of control current recorded immediately before ACET: 143 % of control
  GLIC current with SUCCIN after ACET plateau, % of current recorded in the presence of ACET: 2170 % of ACET current
WT GLIC [1]; SUCCIN 10 mM co-applied with ACET 1 mM, pHo 5.0, after 90, 120, 180 s of ACET, individual cells
  peak SUCCIN current (co-application with ACET), % of control current recorded immediately before ACET: 132 % of control and 28 % of control and 44 % of control
WT GLIC [1]; SUCCIN 10 mM co-applied with ACET 1 mM, pHo 5.0, individual cells
  peak SUCCIN current (co-application with ACET), % of ACET current: 753 % of ACET current and 505 % of ACET current and 392 % of ACET current

## CCC(=O)O [PROPION, Propanoic acid]
WT GLIC [1]
  activity on GLIC current (NAM effect): active
  reversibility of negative modulation (slow components): 3 to 10 min
WT GLIC [1]; pHo 5.5, mean ± SD
  slope parameter nH (from individual cells): 1.1
WT GLIC [1]; [7]
  IC50: 204 µM
WT GLIC [2]
  ratio of peak current values in the presence and in the absence of compound (Ipk[CBX@5.0]/Ipk[pHo 5.0]): 0.380
  current decay (h) time constant: 1.47 s

## CC(=O)C(=O)O [pyruvate]
WT GLIC [1]; [8]
  effect on GLIC current: no effect

## phosphate
WT GLIC [1]; 1 and 10 mM at pH 5.0, extracellular solution without CaCl2, n = 4 cells
  effect on GLIC activity: no effect

## O=C(O)/C=C/C(=O)O [FUMAR, (E)‐but‐2‐enedioic acid]
WT GLIC [1]
  current in the presence of di-CBX, % of control: 194 % of control

## C/C=C/C(=O)O [CROTON, Butenoic acid]
WT GLIC [1]
  current in the presence of mono-CBX, % of control: 13.6 % of control
  current in the presence of mono-CBX, % of control (100*I CBX/I CONTROL): 11.9 % of control
WT GLIC [1]; [9]
  IC50: 191 µM
WT GLIC [2]
  ratio of peak current values in the presence and in the absence of compound (Ipk[CBX@5.0]/Ipk[pHo 5.0]): 0.228 and 0.244
  current decay (h) time constant: 0.695 s and 0.583 s
GLIC E181A
  impact of the E181A substitution on the NAM effect: no impact
GLIC R133A [3]
  peak current inhibition: almost fully abolished
GLIC AA‐N152A
  decay constant tau of PAM ratio versus control current amplitude: 800 nA
[4]
  CROTON PAM effect after adding a binding pocket mutation to AA (excluding AA‐N152A): fully abolished

## CCCC(=O)O [BUTYR, Butanoic acid]
WT GLIC [1]
  current in the presence of mono-CBX, % of control: 13.6 % of control
  current in the presence of mono-CBX, % of control (100*I CBX/I CONTROL): 10.3 % of control
WT GLIC [1]; [9]
  IC50: 219 µM
WT GLIC [1]; pHo 5.5, mean ± SD
  slope parameter nH (from individual cells): 1.5
WT GLIC [1]; [7]
  IC50: 150 µM
WT GLIC [2]
  ratio of peak current values in the presence and in the absence of compound (Ipk[CBX@5.0]/Ipk[pHo 5.0]): 0.257 and 0.332
  current decay (h) time constant: 0.541 s and 0.304 s
GLIC E181A
  impact of the E181A substitution on the NAM effect: no impact
GLIC R133A [3]
  peak current inhibition: almost fully abolished

## CCCCC(=O)O [VALER, Pentanoic acid]
WT GLIC [1]; IC50 (from individual cells), pHo 5.0, mean ± SD
  IC50: 289 µM

## NCCCC(=O)O [GABA, γ‐amino butyrate]
WT GLIC [1]; [8]
  effect on GLIC current: no effect

## CC(O)C(=O)O (stereo not drawn) [DL‐lactate]
WT GLIC [1]; [8]
  effect on GLIC current: no effect

## O=C(O)CC(O)(CC(=O)O)C(=O)O [citrate]
WT GLIC [1]; citrate used as buffer, conditions not given
  effect on GLIC current: no effect

## NCC(=O)O [glycine]
WT GLIC [1]; [8]
  effect on GLIC current: no effect

## C[C@H](N)C(=O)O [(L)‐alanine]
WT GLIC [1]; [8]
  effect on GLIC current: no effect

## NCCC(=O)O [β‐alanine]
WT GLIC [1]; [8]
  effect on GLIC current: no effect

## CC(=O)O [ACET, Ethanoic acid]
WT GLIC [1]
  current in the presence of mono-CBX, % of control: 12.2 % of control
  current in the presence of mono-CBX, % of control (100*I CBX/I CONTROL): 12.2 % of control
  activity on GLIC current (NAM effect): active
  reversibility of negative modulation (slow components): 3 to 10 min
WT GLIC [1]; ACET 1 mM at pHo 5.0, 50-180 s application, individual cells
  GLIC current in the presence of ACET, % of control: 17 % of control and 6.6 % of control and 5.5 % of control and 17.2 % of control and 11.3 % of control
WT GLIC [1]; pHo 5.5, 10 cells
  slope parameter (fit of the mean value): 1.6
WT GLIC [1]; pHo 5.5, 10 cells, read-out: IC50 (sigmoid fit of the mean value)
  IC50: 136 µM
WT GLIC [1]; [7]
  IC50: 128 µM
WT GLIC [2]
  ratio of peak current values in the presence and in the absence of compound (Ipk[CBX@5.0]/Ipk[pHo 5.0]): 0.400 and 0.424 and 0.533 and 0.575
  current decay (h) time constant: 2.90 s and 3.13 s and 3.33 s and 5.62 s
GLIC E104Q
  current in the presence of mono-CBX, % of control: 47.6 % of control
GLIC E177A
  current in the presence of mono-CBX, % of control: 14.9 % of control
GLIC E181A
  impact of the E181A substitution on the NAM effect: no impact
GLIC R105A
  current in the presence of mono-CBX, % of control: 17.1 % of control
GLIC R77A
  current in the presence of mono-CBX, % of control: 71.4 % of control
GLIC Y102A
  current in the presence of mono-CBX, % of control: 16.1 % of control
GLIC D86A‐D88A
  current in the presence of mono-CBX, % of control: 14.6 % of control
GLIC N152A
  current in the presence of mono-CBX, % of control: 9.7 % of control
GLIC R133A [5]
  current in the presence of mono-CBX, % of control: 22.7 % of control

## O=C(O)/C=C/c1ccc(O)c(O)c1 [CAFFE, caffeic acid]
WT GLIC [1]; 0.1 mM at pHo 5.0, mean
  current in the presence of CAFFE, % of control: 17.4 % of control
